Results from PubChem BioAssay AID248 (DTP/NCI, 2004).
Inconclusive results and toxic doses are left out. Cut-off read from the data, not from the text of the source: active = T/C of 150% or more; inactive = T/C below 125%.

System: L1210 leukemia ip in BDF1 mice, survival T/C
Test: NCI In Vivo Anticancer Drug Screen. Data for tumor model L1210 Leukemia (intraperitoneal) in B6D2F1 (BDF1) mice
Details: endpoint: mean survival time, higher = longer survival
Summary of the method: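 Value reflects the ratio of survival in compound-treated mice to survival in vehicle-treated controls, with both groups carrying the same transplanted tumor.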

[1] = dose: 100.0 mg/kg/injection, schedule: Q01DX009 (ip), vehicle: saline with Tween-80
[2] = dose: 200.0 mg/kg/injection, schedule: Q01DX009 (ip), vehicle: saline with Tween-80
[3] = dose: 100.0 mg/kg/injection, schedule: Q04DX003 (ip), vehicle: saline with Tween-80
[4] = dose: 100.0 mg/kg/injection, schedule: Q01DX009 (ip), vehicle: saline
[5] = dose: 100.0 mg/kg/injection, schedule: Q04DX003 (ip), vehicle: saline
[6] = dose: 200.0 mg/kg/injection, schedule: Q01DX009 (ip), vehicle: saline
[7] = dose: 200.0 mg/kg/injection, schedule: Q04DX003 (ip), vehicle: saline

Measured: T/C

Nc1nccc(NC(c2ccccc2)c2ccccc2)c1N
inactive: dose: 12.5 mg/kg/injection, schedule: Q01DX001 (ip), vehicle: other 96 % of control | dose: 12.5 mg/kg/injection, schedule: Q01DX009 (ip), vehicle: DMSO 95 % of control | dose: 12.5 mg/kg/injection, schedule: Q04DX003 (ip), vehicle: other 96 % of control | dose: 25.0 mg/kg/injection, schedule: Q01DX001 (ip), vehicle: other 96 % of control | dose: 25.0 mg/kg/injection, schedule: Q04DX003 (ip), vehicle: other 96 % of control | dose: 50.0 mg/kg/injection, schedule: Q01DX001 (ip), vehicle: other 98 % of control | dose: 50.0 mg/kg/injection, schedule: Q04DX003 (ip), vehicle: other 89 % of control

CCN(C(=O)Nc1ccc(F)c(Cl)c1)c1ccc(Cl)cc1
inactive: dose: 50.0 mg/kg/injection, schedule: Q01DX009 (ip), vehicle: saline with Tween-80 100 % of control | [1] 96 % of control | [2] 96 % of control

N#CCC(=O)N1CCc2ccccc2C1
inactive: [1] 97 % of control | dose: 100.0 mg/kg/injection, schedule: Q04DX002 (ip), vehicle: saline with Tween-80 94 % of control | [2] 97 % of control | dose: 200.0 mg/kg/injection, schedule: Q04DX002 (ip), vehicle: saline with Tween-80 105 % of control | dose: 400.0 mg/kg/injection, schedule: Q04DX002 (ip), vehicle: saline with Tween-80 101 % of control

O=C(O)c1cc(=O)n2c3c(cccc13)CCC2
inactive: dose: 50.0 mg/kg/injection, schedule: Q04DX003 (ip), vehicle: saline with Tween-80 101 % of control | [3] 104 % of control | dose: 200.0 mg/kg/injection, schedule: Q04DX003 (ip), vehicle: saline with Tween-80 90 % of control

CC(=O)Nc1ccc(/C=N\NC(=S)Nc2ccc3cn[nH]c3c2)cc1
inactive: dose: 50.0 mg/kg/injection, schedule: Q01DX001 (ip), vehicle: carboxymethylcellulose (CMC) 100 % of control | dose: 100.0 mg/kg/injection, schedule: Q01DX001 (ip), vehicle: carboxymethylcellulose (CMC) 97 % of control | dose: 200.0 mg/kg/injection, schedule: Q01DX001 (ip), vehicle: carboxymethylcellulose (CMC) 103 % of control | dose: 400.0 mg/kg/injection, schedule: Q01DX001 (ip), vehicle: carboxymethylcellulose (CMC) 97 % of control

O=C1C(Br)=CC(Br)=C/C1=N/Br
inactive: dose: 50.0 mg/kg/injection, schedule: Q04DX003 (ip), vehicle: Klucel (hydroxypropylcellulose) (HPC) 108 % of control | dose: 100.0 mg/kg/injection, schedule: Q04DX003 (ip), vehicle: Klucel (hydroxypropylcellulose) (HPC) 97 % of control | dose: 200.0 mg/kg/injection, schedule: Q04DX003 (ip), vehicle: Klucel (hydroxypropylcellulose) (HPC) 93 % of control

CCN(CC)Cc1cc(Nc2cc(C)nc(/N=C(\N)Nc3cc(Cl)cc(Cl)c3)n2)ccc1O
inactive: [3] 98 % of control

C=CCOCC(O)CNCCCOC (stereo not given)
inactive: [4] 107 % of control | [5] 96 % of control | [6] 98 % of control | [7] 98 % of control

COC(=O)C1=C2C(C(=O)OC)C(O)=C(C(=O)OC)C2C(C(=O)OC)C1=O (stereo not given)
inactive: dose: 100.0 mg/kg/injection, schedule: Q01DX001 (ip), vehicle: saline 97 % of control | [4] 100 % of control | [5] 107 % of control | dose: 200.0 mg/kg/injection, schedule: Q01DX001 (ip), vehicle: saline 105 % of control | [6] 97 % of control | [7] 104 % of control | dose: 400.0 mg/kg/injection, schedule: Q01DX001 (ip), vehicle: saline 103 % of control | dose: 400.0 mg/kg/injection, schedule: Q01DX009 (ip), vehicle: saline 95 % of control | dose: 400.0 mg/kg/injection, schedule: Q04DX003 (ip), vehicle: saline 104 % of control

CC(C)(C)c1ccccc1C(N)=O
inactive: dose: 100.0 mg/kg/injection, schedule: Q04DX003 (ip), vehicle: other 101 % of control | dose: 200.0 mg/kg/injection, schedule: Q04DX003 (ip), vehicle: other 109 % of control | dose: 400.0 mg/kg/injection, schedule: Q04DX003 (ip), vehicle: other 91 % of control

O=C(N/N=C\c1ccc(Cl)cc1Cl)C1CC1
inactive: dose: 15.0 mg/kg/injection, schedule: Q01DX Z (ip), vehicle: carboxymethylcellulose (CMC) 97 % of control | dose: 30.0 mg/kg/injection, schedule: Q01DX Z (ip), vehicle: carboxymethylcellulose (CMC) 92 % of control | dose: 30.0 mg/kg/injection, schedule: Q01DX Z (oral), vehicle: carboxymethylcellulose (CMC) 98 % of control | dose: 60.0 mg/kg/injection, schedule: Q01DX Z (ip), vehicle: carboxymethylcellulose (CMC) 95 % of control | dose: 60.0 mg/kg/injection, schedule: Q01DX Z (oral), vehicle: carboxymethylcellulose (CMC) 100 % of control | dose: 120.0 mg/kg/injection, schedule: Q01DX Z (oral), vehicle: carboxymethylcellulose (CMC) 121 % of control

CCCCN(C)c1ccc(N=Nc2cc(Cl)ccc2Cl)cc1
inactive: [3] 98 % of control | dose: 400.0 mg/kg/injection, schedule: Q04DX003 (ip), vehicle: saline with Tween-80 86 % of control
